Measurements taken from paper PMC6152416, “Pharmacological and Toxicological Screening of Novel Benzimidazole-Morpholine Derivatives as Dual-Acting Inhibitors” (Molecules : A Journal of Synthetic Chemistry and Natural …, 2017).
In brackets after ≈: the same amount, converted by molar mass. Entries after “also recorded” stand apart in the source; their conditions may differ. Read-outs that look alike come from different tables or passages of the source. Marks after values point to notes of the source that are not given here.

How the values were obtained:
AChE = AChE (Homo sapiens, UniProt P22303); format: biochemical
Experimental: Inhibition potency of the test compounds against AChE was determined using Ellman’s method. Enzyme solutions were prepared in gelatin solution (1%, w/v), at the concentration of 2.5 units/mL. […] AChE solution (20 µL/well) and test solution (20 µL/well) were added to phosphate buffer solution (140 µL/well, pH 8.0 ± 0.1), and incubated at 25 °C for 5 min. […] The production of the yellow anion was recorded by multimode microplate reader for 10 min at 412 nm. As a control, an identical solution of the enzyme without the inhibitor was processed. The control and the inhibitor readings were corrected with blank-readings. All processes were assayed in four independent determinations.

[1] = tested on: Pseudomona aeuroginosa ATCC 27853; assay: Antimicrobial broth microdilution (CLSI M07-A9); format: cell-based; details: for fold lower MIC50 / greater activity than chloramphenicol: Pseudomona aeuroginosa ATCC 27853; for MIC50: Pseudomona aeuroginosa [sic] ATCC 27853
Experimental: Microbiological studies were performed according to CLSI reference M07-A9 broth microdilution method for bacterial strains and EUCAST definitive method EDef 7.1 for Candida species. Synthesized compounds were tested for their in vitro growth inhibitory activity against Escherichia coli ATCC 35218, Escherichia coli ATCC 25922, Staphylococcus aureus, ATCC 25923, Pseudomona aeuroginosa ATCC 27853, Enterococcus faecalis ATCC29212, Klebsiella pneumoniae ATCC700603 Listeria monocytogenes ATCC7644, Candida albicans ATCC90028, Candida glabrata ATCC 90030, Candida krusei ATCC 6258, Candida parapsilosis ATCC 22019.
The cultures were obtained from Mueller-Hinton broth (Difco) for the bacterial strains and the yeasts were maintained in Roswell Park Memorial Institute (RPMI) medium, after an overnight incubation at 37 °C for both. The inocula of the test microorganisms were adjusted to match an equivalent turbidity of a 0.5 McFarland standard, which was determined using a spectrophotometer; the final inoculum size was determined to be 0.5–2.5 × 10^5 cfu/mL for antibacterial and antifungal assays. The tests were carried out for both mediums at pH = 7 and two-fold serial dilutions were applied. The last well on the microplates, which was containing only the inoculated broth, was kept as control, and the last well with no growth of microorganism was recorded to represent the minimum inhibitory concentration (MIC50) in μg/mL. For both of the antibacterial and antifungal assays, the test compounds and reference drugs were firstly dissolved in DMSO, and further dilutions were performed to the desired concentrations of 1000, 500, 250, 125, 62.5, 31.25, 15.6, 7.8, 3.9 and 1.95 μg/mL using Mueller–Hinton broth and RPMI medium. The completed plates were incubated for 24 h, and at the end of the incubation, resazurin (20 µg/mL) was added into each well to control the growth in the wells. Final plates including microorganism strains were incubated for 2 h. MIC50 values were determined using microplate reader at […] wavelengths; MIC50 readings were performed twice for entire compounds. Chloramphenicol and ketoconazole were used as reference drugs.

[2] = tested on: Salmonella typhimurium TA98; assay: Ames MPF genotoxicity assay; format: cell-based; details: for Ames MPF mutagenicity classification: TA98, in the presence/absence of metabolic activation (S9)
Experimental: (§1) The genotoxicity of selected compounds (2b, 2j, 2m) was determined by Ames assay using Ames MPF 98/100 mutagenicity assay sample kit (Xenometrix AG, Allschwil, Switzerland) as previously described elsewhere. Salmonella typhimurium strains, TA98 (frameshift mutations) and TA100 (base-pair substitutions) were used in the assay. The concentration of the compounds was between 16 and 5000 μg/mL, in accordance with the guideline. Compounds were prepared in six different concentrations (5.0, 2.5, 1.25, 0.625, 0.3125, 0.156 mg/mL) in DMSO. Mutagenic potential was determined in the absence or presence of Aroclor™-1254 induced male Sprague–Dawley rat liver microsomal enzyme (S9) mix (Xenometrix AG). Positive controls without S9 mix were 2-nitrofluorene (2.0 μg/mL) and 4-nitroquinoline N-oxide (0.1 μg/mL), whereas 1.0 μg/mL and 2.5 μg/mL of 2-aminoanthracene solutions were used as positive controls with S9 against TA98 and TA100, respectively. Solvent control was prepared with 4% DMSO. The end of an experiment was determined by the change of the indicator medium colour to yellow, which was originating from the decrease of pH due to revertant bacteria. Yellow wells were counted as positive, and compared with the negative control. Fold induction over the negative control and fold induction over the baseline were calculated (Fold induction over the negative control is accepted as the ratio of the mean number of positive wells for the dose concentration divided by the mean number of positive wells for the zero dose (negative) control. Fold induction over the baseline is accepted as the ratio of the mean number of positive wells for the dose concentration divided by zero dose baseline. The zero-dose baseline is obtained by adding one standard deviation to the mean number of positive wells of the zero dose control. If the baseline is less than 1, the value is set to 1 for calculation).
(§2) Mutagenicity was determined according to the criteria reported previously. For a baseline value of ≤3, significant increases between 2 and 3-fold of the baseline were classified as weak mutagen, and increases ≥3-fold of the baseline were classified as mutagen. […] As a rule, at least two adjacent doses with significant increases or a significant increase at the highest dose level should be observed for a mutagenic compound. All of the doses were compared according to Student’s t-test at p < 0.05 for statistical significance.

[3] = tested on: Salmonella typhimurium TA100; assay: Ames MPF genotoxicity assay; format: cell-based; details: for Ames MPF mutagenicity classification: TA100, with/without metabolic activation (S9)
Experimental: as §1, §2

AChE, sequence (P22303 32-614): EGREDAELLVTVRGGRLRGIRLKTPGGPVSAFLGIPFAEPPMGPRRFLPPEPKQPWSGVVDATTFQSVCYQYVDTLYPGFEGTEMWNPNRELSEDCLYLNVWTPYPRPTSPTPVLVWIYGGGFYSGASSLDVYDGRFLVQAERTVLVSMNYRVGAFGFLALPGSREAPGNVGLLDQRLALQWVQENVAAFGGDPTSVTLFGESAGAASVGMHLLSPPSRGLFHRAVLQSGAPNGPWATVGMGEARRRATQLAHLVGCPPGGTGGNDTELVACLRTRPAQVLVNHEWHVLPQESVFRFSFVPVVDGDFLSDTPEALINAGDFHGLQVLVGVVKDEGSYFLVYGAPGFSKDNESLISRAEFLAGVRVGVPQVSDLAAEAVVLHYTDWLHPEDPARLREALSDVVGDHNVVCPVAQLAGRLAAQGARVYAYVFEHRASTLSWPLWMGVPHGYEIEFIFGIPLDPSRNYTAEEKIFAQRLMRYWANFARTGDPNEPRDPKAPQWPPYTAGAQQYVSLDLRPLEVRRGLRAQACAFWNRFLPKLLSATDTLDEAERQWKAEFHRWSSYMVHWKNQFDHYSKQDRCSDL

Structure (SMILES)	AChE Inhibition (%) (AChE; 10^-3 M)	AChE Inhibition (%) (AChE; 10^-4 M)	fold lower MIC50 / greater activity than chloramphenicol [1]	MIC50 [1]	REVERTANTS Fold Increase (over Baseline) ([2]; TA98, S9+, 0.156 mg/mL)	REVERTANTS Fold Increase (over Baseline) ([2]; TA98, S9+, 0.3125 mg/mL)	REVERTANTS Fold Increase (over Baseline) ([2]; TA98, S9+, 0.625 mg/mL)	REVERTANTS Fold Increase (over Baseline) ([2]; TA98, S9+, 1.25 mg/mL)	REVERTANTS Fold Increase (over Baseline) ([2]; TA98, S9+, 2.5 mg/mL)	REVERTANTS Fold Increase (over Baseline) ([2]; TA98, S9+, 5 mg/mL)	REVERTANTS Fold Increase (over Baseline) ([2]; TA98, S9−, 0.156 mg/mL)	REVERTANTS Fold Increase (over Baseline) ([2]; TA98, S9−, 0.3125 mg/mL)	REVERTANTS Fold Increase (over Baseline) ([2]; TA98, S9−, 0.625 mg/mL)	REVERTANTS Fold Increase (over Baseline) ([2]; TA98, S9−, 1.25 mg/mL)	REVERTANTS Fold Increase (over Baseline) ([2]; TA98, S9−, 2.5 mg/mL)	REVERTANTS Fold Increase (over Baseline) ([2]; TA98, S9−, 5 mg/mL)	Ames MPF mutagenicity classification [2]	REVERTANTS Fold Increase (over Baseline) ([3]; TA100, S9+, 0.156 mg/mL)	REVERTANTS Fold Increase (over Baseline) ([3]; TA100, S9+, 0.3125 mg/mL)	REVERTANTS Fold Increase (over Baseline) ([3]; TA100, S9+, 0.625 mg/mL)	other results
Clc1ccc(-c2nc3ccccc3n2CCN2CCOCC2)cc1 [Compound 2c, 2-(4-Chlorophenyl)-1-[2-(morpholin-4-yl)ethyl]-1H-benzimidazole]	5.48%	5.48%	2 fold	125 µg/mL (≈ 366 µM)																	
FC(F)(F)Oc1ccc(-c2nc3ccccc3n2CCN2CCOCC2)cc1 [Compound 2m, 2-(4-Trifluoromethoxyphenyl)-1-[2-(morpholin-4-yl)ethyl]-1H-benzimidazole]	32.90%	32.90%	2 fold	125 µg/mL (≈ 319 µM)	0.46	0.62	0.77	0.46	1.23	0.31	0.95	0.70	0.57	1.08 *	0.82	1.08 *	non-genotoxic; also recorded: non-mutagenic	0.10	0.10	0.88	REVERTANTS Fold Increase (over Baseline) ([3]; TA100, S9+, 1.25 mg/mL): 0.19; REVERTANTS Fold Increase (over Baseline) ([3]; TA100, S9+, 2.5 mg/mL): 0.49; REVERTANTS Fold Increase (over Baseline) ([3]; TA100, S9+, 5 mg/mL): 0.29; REVERTANTS Fold Increase (over Baseline) ([3]; TA100, S9−, 0.156 mg/mL): 0.61; REVERTANTS Fold Increase (over Baseline) ([3]; TA100, S9−, 0.3125 mg/mL): 0.88; REVERTANTS Fold Increase (over Baseline) ([3]; TA100, S9−, 0.625 mg/mL): 0.47; REVERTANTS Fold Increase (over Baseline) ([3]; TA100, S9−, 1.25 mg/mL): 0.47; REVERTANTS Fold Increase (over Baseline) ([3]; TA100, S9−, 2.5 mg/mL): 0.54; REVERTANTS Fold Increase (over Baseline) ([3]; TA100, S9−, 5 mg/mL): 0.61; Ames MPF mutagenicity classification [3]: non-genotoxic; also recorded: non-mutagenic
CCOc1ccc(-c2nc3ccccc3n2CCN2CCOCC2)cc1 [Compound 2j, 2-(4-Ethoxyphenyl)-1-[2-(morpholin-4-yl)ethyl]-1H-benzimidazole]	7.20%	7.20%			0.25	0.12 *	0.62	0.74	0.12	0.74 *	0.60	0.94	0.68	0.60	0.94	0.09 ***	non-genotoxic; also recorded: non-mutagenic	0.15	0.00	0.15	REVERTANTS Fold Increase (over Baseline) ([3]; TA100, S9+, 1.25 mg/mL): 0.38; REVERTANTS Fold Increase (over Baseline) ([3]; TA100, S9+, 2.5 mg/mL): 0.31; REVERTANTS Fold Increase (over Baseline) ([3]; TA100, S9+, 5 mg/mL): 0.15; REVERTANTS Fold Increase (over Baseline) ([3]; TA100, S9−, 0.156 mg/mL): 0.80; REVERTANTS Fold Increase (over Baseline) ([3]; TA100, S9−, 0.3125 mg/mL): 1.00; REVERTANTS Fold Increase (over Baseline) ([3]; TA100, S9−, 0.625 mg/mL): 0.40; REVERTANTS Fold Increase (over Baseline) ([3]; TA100, S9−, 1.25 mg/mL): 0.67; REVERTANTS Fold Increase (over Baseline) ([3]; TA100, S9−, 2.5 mg/mL): 0.67 ***; REVERTANTS Fold Increase (over Baseline) ([3]; TA100, S9−, 5 mg/mL): 1.20; Ames MPF mutagenicity classification [3]: non-genotoxic; also recorded: non-mutagenic
CC(C)c1ccc(-c2nc3ccccc3n2CCN2CCOCC2)cc1 [Compound 2e, 2-(4-Isopropylphenyl)-1-[2-(morpholin-4-yl)ethyl]-1H-benzimidazole]	17.51%	17.51%		250 µg/mL (≈ 715 µM)																	
